Experimental data taken from PMC6332393, “A Fungal α-Galactosidase from Tricholoma matsutake with Broad Substrate Specificity and Good Hydrolytic Activity on Raffinose Family Oligosaccharides” (Molecules, 2015).

Legend:
α-galactosidase TMG [1] = system: T1, α-galactosidase TMG; experiment: p-nitrophenol release at […] nm; Grafit fit; type: biochemical, Tricholoma matsutake; conditions: pH 4.6, 50 °C (standard assay); 1-10 mM substrate; apparent Km; unit Mm [sic]
T1 construct: native, purified from fruiting bodies (Yunnan, China); monomer, 47 kDa by SDS-PAGE and gel filtration; inner peptides by LC-MS/MS GNVMVSLG, LLNMND, INVNDS; not cloned

α-galactosidase TMG [2] = system: T1, α-galactosidase TMG; experiment: reducing sugar release ([…],5-dinitrosalicylic acid); Grafit fit; type: biochemical, Tricholoma matsutake; conditions: 100 mM NaAc-HAc pH 4.6, 40 °C; 1-10 mM substrate; apparent Km; unit Mm [sic]

| Compound | Km (α-galactosidase TMG [1]) [µM] | Km (α-galactosidase TMG [2]) [mM] |
| --- | --- | --- |
| O=[N+]([O-])c1ccc(O[C@H]2O[C@H](CO)[C@H](O)[C@H](O)[C@H]2O)cc1 [pNPGal, 4-Nitrophenyl α-D-galactopyranoside] | 990 |  |
| OC[C@H]1O[C@H](OC[C@H]2O[C@H](O[C@]3(CO)O[C@H](CO)[C@@H](O)[C@@H]3O)[C@H](O)[C@@H](O)[C@@H]2O)[C@H](O)[C@@H](O)[C@H]1O [raffinose] |  | 3.7 |
| OC[C@H]1O[C@H](OC[C@H]2O[C@H](OC[C@H]3O[C@H](O[C@]4(CO)O[C@H](CO)[C@@H](O)[C@@H]4O)[C@H](O)[C@@H](O)[C@@H]3O)[C@H](O)[C@@H](O)[C@H]2O)[C@H](O)[C@@H](O)[C@H]1O [stachyose] |  | 3.5 |
